Measured values reported in patent US20120214802A1, “PYRROLIDINE COMPOUNDS WHICH INHIBIT BETA-SECRETASE ACTIVITY AND METHODS OF USE THEREOF” (priority 2009, published 2012).

Experiments:
memapsin 2 [1] = molecular target: T1, memapsin 2 (Cricetulus griseus, UniProt G3IAK4); test: Cellular Aβ IC50 determination (Aβ40 sandwich ELISA); format: cell-based, Chinese hamster; conditions: CHO cells over-expressing human APP695 with London and Swedish mutations, 24 h, read-out: M2 IC50
T1 construct: endogenous in cells; host or cells: Chinese hamster ovary cells over-expressing human APP695 (London + Swedish)
T1 sequence (G3IAK4 22-501): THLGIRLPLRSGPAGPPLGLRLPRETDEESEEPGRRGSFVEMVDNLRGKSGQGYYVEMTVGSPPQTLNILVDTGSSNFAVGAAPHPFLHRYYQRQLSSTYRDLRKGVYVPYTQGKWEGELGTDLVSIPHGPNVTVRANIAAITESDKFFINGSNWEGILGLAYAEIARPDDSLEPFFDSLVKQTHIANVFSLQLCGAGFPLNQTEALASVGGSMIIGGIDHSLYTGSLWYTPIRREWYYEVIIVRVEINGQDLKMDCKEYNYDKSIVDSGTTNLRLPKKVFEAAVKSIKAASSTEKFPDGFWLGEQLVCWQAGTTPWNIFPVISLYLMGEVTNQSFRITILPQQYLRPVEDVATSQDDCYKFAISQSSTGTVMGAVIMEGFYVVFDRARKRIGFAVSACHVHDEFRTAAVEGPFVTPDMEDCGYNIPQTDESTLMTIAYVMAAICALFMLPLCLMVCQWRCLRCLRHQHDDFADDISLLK
Method: The potency of compounds against memapsin 2 activity was determined in a cellular assay of Aβ production. […] Chinese hamster ovary cells that over-express human APP695 with the London and Swedish mutations were seeded in multi-well plates at 10% confluency. Compounds are dissolved in DMSO to concentrations near 1 mM, and diluted into culture media to a final concentration near 4 μM (final 0.4% DMSO). Compounds were diluted serially and applied to cells in multi-well plates 48 h after seeding. Incubation was continued in 5% CO2 at 37° C. for 24 h. Aliquots were removed and assayed for […] using a sandwich ELISA (BioSource International). Amount of Aβ40 over the range of concentration of compounds, relative to control incubations, were fit to a 4-parameter IC50 model.

memapsin 2 [2] = molecular target: memapsin 2 (Homo sapiens, UniProt P56817); test: Inhibition of memapsin 2 beta-secretase activity (fluorogenic substrate FS-2); format: biochemical; conditions: pH 4, 37° C., read-out: M2 Ki
memapsin 2 (Homo sapiens, UniProt P56817), sequence (P56817 46-501): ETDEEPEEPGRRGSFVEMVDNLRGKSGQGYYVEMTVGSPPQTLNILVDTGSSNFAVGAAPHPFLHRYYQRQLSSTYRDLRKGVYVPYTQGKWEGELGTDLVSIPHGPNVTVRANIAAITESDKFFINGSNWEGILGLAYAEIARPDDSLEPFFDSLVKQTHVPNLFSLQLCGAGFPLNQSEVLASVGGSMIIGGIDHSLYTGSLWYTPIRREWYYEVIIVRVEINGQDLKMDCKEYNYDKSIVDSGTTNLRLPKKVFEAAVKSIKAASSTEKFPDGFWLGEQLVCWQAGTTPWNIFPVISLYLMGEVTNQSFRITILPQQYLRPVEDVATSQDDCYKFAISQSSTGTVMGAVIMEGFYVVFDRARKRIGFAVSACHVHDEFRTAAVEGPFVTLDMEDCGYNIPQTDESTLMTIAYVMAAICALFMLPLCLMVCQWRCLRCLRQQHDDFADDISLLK
Method: Potency of compounds were determined by measurement of their inhibition of memapsin 2 activity toward a fluorescent substrate. Kinetic inhibition experiments were performed using the procedure as described in Ermolieff, et al. (Biochemistry 39:12450-12456 (2000), the teachings of which are incorporated hereby in their entirety). Briefly, assays were performed at pH 4, 37° C., by pre-incubation of memapsin 2 enzyme with compound for 20 minutes. Activity measurements were initiated by addition of a fluorogenic substrate FS-2 (Bachem Americas, Torrance, Calif.) MCA-SEVNLDAEFR-DNP (SEQ ID NO.: 2). The substrate was derived from 10 amino acids of the human amyloid precursor protein (APP), with the Swedish variant amino acids at the beta-secretase cleavage site. The terminal amino acid was modified from arginine to lysine to facilitate derivatization with a functional group for detection by autofluorescence. The amino acid sequence of the “core” peptide of the substrate is SEVNLDAEFK (SEQ ID NO.: 3). The amino terminus was derivatized with (7-methoxycoumarin-4-yl)acetyl (MCA), and the epsilon amine of the lysine side chain of the terminal residue (K in sequence SEVNLDAEFK (SEQ ID NO.: 3)) was derivatized with 2,4-dinitorphenyl (DNP).

SMILES	IC50 (memapsin 2 [1]) [nM]	Ki (memapsin 2 [2]) [nM]
Cc1csc(CN(C)C(=O)c2cccc(C(=O)N[C@@H](Cc3ccccc3)[C@H](O)[C@H]3CCCN3C(=O)OC(C)(C)C)c2)n1 [1-1, (R)-tert-butyl 2-((1S,2S)-1-hydroxy-2-(3-(methyl((4-methylthiazol-2-yl)methyl)carbamoyl)benzamido)-3-phenylpropyl)pyrrolidine-1-carboxylate]	> 1000	> 750
Cc1csc(CN(C)C(=O)c2cccc(C(=O)N[C@@H](Cc3ccccc3)[C@H](O)[C@H]3CCCN3)c2)n1 [1-2, N1-((1R,2S)-1-hydroxy-3-phenyl-1-((R)-pyrrolidin-2-yl)propan-2-yl)-N3-methyl-N3-((4-methylthiazol-2-yl)methyl)isophthalamide]	> 1000	250 to 750
Cc1coc([C@H]2CCCN2C(=O)c2cccc(C(=O)N[C@@H](Cc3ccccc3)[C@H](O)[C@H]3CCCN3)c2)n1 [1-4, N-((1R,2S)-1-hydroxy-3-phenyl-1-((R)-pyrrolidin-2-yl)propan-2-yl)-3-((R)-2-(4-methyloxazol-2-yl)pyrrolidine-1-carbonyl)benzamide]	> 1000	250 to 750
C[C@@H](NC(=O)c1cc(C(=O)N[C@@H](Cc2ccccc2)[C@H](O)[C@H]2CCCN2C(=O)OC(C)(C)C)cc(N(C)S(C)(=O)=O)c1)c1ccccc1 [1-5, (R)-tert-butyl 2-((1S,2S)-1-hydroxy-2-(3-(N-methylmethylsulfonamido)-5-((R)-1-phenylethylcarbamoyl)benzamido)-3-phenylpropyl)pyrrolidine-1-carboxylate]	> 1000	> 750
Cc1cc(C(=O)N[C@@H](Cc2ccccc2)[C@H](O)[C@H]2CCCN2C(=O)OC(C)(C)C)cc(C(=O)N2CCC[C@@H]2c2nc(C)co2)c1 [1-6, (R)-tert-butyl 2-((1S,2S)-1-hydroxy-2-(3-methyl-5-((R)-2-(4-methyloxazol-2-yl)pyrrolidine-1-carbonyl)benzamido)-3-phenylpropyl)pyrrolidine-1-carboxylate]	> 1000	> 750
Cc1csc(CN(C)C(=O)c2cc(C(=O)N[C@@H](Cc3ccccc3)[C@H](O)[C@H]3CCCN3C(=O)OC(C)(C)C)cc(-c3ncco3)c2)n1 [1-7, (R)-tert-butyl 2-((1S,2S)-1-hydroxy-2-(3-(methyl((4-methylthiazol-2-yl)methyl)carbamoyl)-5-(oxazol-2-yl)benzamido)-3-phenylpropyl)pyrrolidine-1-carboxylate]	> 1000	> 750
Cc1csc(CN(C)C(=O)c2cccc(C(=O)N[C@@H](Cc3ccccc3)[C@H](O)[C@H]3C[C@@H](O)CN3)c2)n1 [1-10, N1-((1R,2S)-1-hydroxy-1-((2R,4R)-4-hydroxypyrrolidin-2-yl)-3-phenylpropan-2-yl)-N3-methyl-N3-((4-methylthiazol-2-yl)methyl)isophthalamide]	> 1000	250 to 750
Cc1coc([C@H]2CCCN2C(=O)c2cc(C(=O)N[C@@H](Cc3ccccc3)[C@H](O)[C@H]3CCCN3)cc(-c3cnccn3)c2)n1 [1-21, N-((1R,2S)-1-hydroxy-3-phenyl-1-((R)-pyrrolidin-2-yl)propan-2-yl)-3-((R)-2-(4-methyloxazol-2-yl)pyrrolidine-1-carbonyl)-5-(pyrazin-2-yl)benzamide]	< 500	< 250
CCCN(CCC)C(=O)c1cccc(C(=O)N[C@@H](Cc2ccccc2)[C@H](O)[C@H]2CCCN2)c1 [2-12, N1-((1R,2S)-1-hydroxy-3-phenyl-1-((R)-pyrrolidin-2-yl)propan-2-yl)-N3,N3-dipropylisophthalamide, reference compound]		> 750
O=C(N[C@@H](Cc1ccccc1)[C@H](O)[C@H]1CCCN1)c1cccc(CN2CCCC2=O)c1 [2-13, N-((1R,2S)-1-hydroxy-3-phenyl-1-((R)-pyrrolidin-2-yl)propan-2-yl)-3-((2-oxopyrrolidin-1-yl)methyl)benzamide, reference compound]		> 750
